Counter-ions that a name gives are not always drawn.
Columns and labels:
CDK2/cyclin A = molecular target: T1, CDK2/cyclin A (Homo sapiens, UniProt P24941); experiment: Inhibition of CDK2/cyclin A retinoblastoma kinase activity (Ki; % inhibition); assay type: biochemical; settings: for Ki: apparent Ki, CDK2/cyclin A, Rb substrate
T1 construct: made in house; host or cells: CDK2: insect cells (baculovirus); cyclin A: E. coli
Procedure, shortened: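 Apparent Ki values came from fitting concentration-dependent activity data to competitive (or competitive tight-binding) models, and % inhibition from single 30 nM screens of library compounds. Activity was measured as ³²P/³³P incorporation from 25 μM ATP into an Rb substrate by 10 or 19 nM CDK2/delta cyclin A at 30 °C over 60–75 min, pH 7.4.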

human CDK4/cyclin D3 = molecular target: T2, human CDK4/cyclin D3 (Homo sapiens, UniProt P11802); experiment: Inhibition of CDK4/cyclin D retinoblastoma kinase activity (Ki; % inhibition); assay type: biochemical; settings: for Ki: apparent Ki, CDK4/cyclin D3, Rb substrate
T2 construct: made in house; host or cells: insect cells co-infected with baculovirus vectors
T2 sequence (P11802 whole entry): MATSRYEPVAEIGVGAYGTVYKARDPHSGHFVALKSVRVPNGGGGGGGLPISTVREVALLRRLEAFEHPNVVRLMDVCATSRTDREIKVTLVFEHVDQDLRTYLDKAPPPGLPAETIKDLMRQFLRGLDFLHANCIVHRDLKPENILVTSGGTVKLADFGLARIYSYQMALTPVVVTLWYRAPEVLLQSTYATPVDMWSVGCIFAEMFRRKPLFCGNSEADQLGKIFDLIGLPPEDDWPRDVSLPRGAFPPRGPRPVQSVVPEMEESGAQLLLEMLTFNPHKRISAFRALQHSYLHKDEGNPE
T2 sequence (P30281 1-264 partner limits assumed): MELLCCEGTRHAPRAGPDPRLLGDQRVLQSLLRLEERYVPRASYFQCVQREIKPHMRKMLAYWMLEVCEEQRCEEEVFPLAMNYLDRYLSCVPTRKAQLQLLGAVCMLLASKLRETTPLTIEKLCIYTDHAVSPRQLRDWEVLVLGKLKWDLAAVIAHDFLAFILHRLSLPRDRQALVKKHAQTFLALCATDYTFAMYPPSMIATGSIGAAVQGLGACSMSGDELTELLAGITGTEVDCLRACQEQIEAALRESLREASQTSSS
Procedure, shortened: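 Radiometric filter-binding read-out: Rb residues 386-928 phosphorylated by 5 nM CDK4/cyclin D3(1-264) from baculovirus-infected insect cells, 25 μM ATP, HEPES pH 7.4, 30 °C. Run 20 min, or 60 min for tight-binding inhibitors. Screening at 30 nM theoretical compound; apparent Ki by competitive-inhibition fitting.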

HCT-116 cell line = experiment: Inhibition of cell growth, MTT tetrazolium salt assay; assay type: cell-based; settings: for IC50: Homo sapiens, HCT-116, 120 h, MTT, three to five days
Procedure, shortened: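 HCT-116 cells in McCoy's 5A were dosed 4 h after plating with compounds in 0.5% DMSO and grown 3–5 days at 37 °C. Then 0.2 mg/mL MTT was added for 4 h and formazan absorbance read at 540 nm. IC50/IC90 came from semi-log plots against DMSO-only controls.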

[1] = HCT-116 cells, 0.25 μM compound

Row | SMILES | CDK2 % Inhibition at 0.03 μM (CDK2/cyclin A; 0.03 μM compound) [%] | CDK4 % Inhibition at 0.03 μM (human CDK4/cyclin D3; 0.03 μM compound) [%] | CDK2 % Inhibition at 0.03 μM (CDK2/cyclin A; at 0.03 μM) [%] | CDK4 % Inhibition at 0.03 μM (human CDK4/cyclin D3; at 0.03 μM) [%] | HCT-116 % Inhibition at 0.1 μM (HCT-116 cell line; HCT-116 cells, 0.1 μM compound) [%] | HCT-116 % Inhibition at 0.25 μM (HCT-116 cell line; [1]) [%] | HCT-116 % Inhibition at 0.25 μM (HCT-116 cell line; HCT-116, at 0.25 μM) [%] | further results
1 | CCCC(C)NC(=O)c1ccc(Nc2nc(N)c(C(=O)c3c(F)cccc3F)s2)cc1 (stereo not shown) [Example G163] | – | – | 16 | 21 | – | – | 67 | HCT-116 % Inhibition at 0.1 μM (HCT-116 cell line; HCT-116, at 0.1 μM): 0%
2 | CCOC(=O)c1ccc(NC(=O)c2ccc(Nc3nc(N)c(C(=O)c4c(F)cccc4F)s3)cc2)cc1 [Example G190] | – | – | 5 | 4 | – | – | 55 | HCT-116 % Inhibition at 0.1 μM (HCT-116 cell line; HCT-116, at 0.1 μM): 9%
3 | CC(CO)NC(=O)c1ccc(Nc2nc(N)c(C(=O)c3c(F)cccc3F)s2)cc1 (stereo not shown) [Example G175] | – | – | 15 | 31 | – | – | – | HCT-116 % Inhibition at 0.1 μM (HCT-116 cell line; HCT-116, at 0.1 μM, 0.1 µM): 11%; HCT-116 % Inhibition at 0.25 μM (HCT-116 cell line; HCT-116, at 0.25 μM, 0.25 µM): 47%
4 | CN(C)C1CCN(C(=O)c2ccc(Nc3nc(N)c(C(=O)c4c(F)cccc4F)s3)cc2)C1 (stereo not shown) [Example G29] | – | – | 4 | 32 | – | – | – | HCT-116 % Inhibition at 0.25 μM (HCT-116 cell line; HCT-116, at 0.25 μM, 0.25 µM): 55%
5 | Cc1ccc(NC(=O)c2ccc(Nc3nc(N)c(C(=O)c4c(F)cccc4F)s3)cc2)cc1Cl [Example G8] | – | – | −1 | −5 | – | – | 50 | –
6 | Nc1nc(Nc2ccc(C(=O)NCC3CCCCC3)cc2)sc1C(=O)c1c(F)cccc1F [Example G173] | – | – | 14 | 21 | – | – | 54 | HCT-116 % Inhibition at 0.1 μM (HCT-116 cell line; HCT-116, at 0.1 μM): 18%
7 | Nc1nc(Nc2ccc(C(=O)NCC3CCCCN3)cc2)sc1C(=O)c1c(F)cccc1F (stereo not shown) [Example A33, 4-[4-Amino-5-(2,6-difluoro-benzoyl)-thiazol-2-ylamino]-N-(piperidin-2RS-ylmethyl)-benzamide Trifluoroacetate Salt] | – | – | – | – | – | – | – | Ki (CDK2/cyclin A): 0.091 µM; Ki (human CDK4/cyclin D3): 0.01 µM; IC50 (HCT-116 cell line): 2.2 µM
8 | Nc1nc(Nc2ccc(C(=O)N3CCN(Cc4ccc5c(c4)OCO5)CC3)cc2)sc1C(=O)c1c(F)cccc1F [Example G62] | – | – | 7 | 22 | – | – | 50 | –
9 | Nc1nc(Nc2ccc(C(=O)NCC(O)c3ccccc3)cc2)sc1C(=O)c1c(F)cccc1F (stereo not shown) [Example G104] | – | – | 8 | 14 | – | – | 91 | HCT-116 % Inhibition at 0.1 μM (HCT-116 cell line; HCT-116, at 0.1 μM): 38%
10 | COC(CN(C)C(=O)c1ccc(Nc2nc(N)c(C(=O)c3c(F)cccc3F)s2)cc1)OC [Example G19] | – | – | −7 | 4 | – | – | 43 | –
11 | COc1ccccc1CNC(=O)c1ccc(Nc2nc(N)c(C(=O)c3c(F)cccc3F)s2)cc1 [Example G170] | – | – | 26 | 32 | – | – | 78 | HCT-116 % Inhibition at 0.1 μM (HCT-116 cell line; HCT-116, at 0.1 μM): 44%
12 | Nc1nc(Nc2ccc(C(=O)N3CCC(Cc4ccccc4)CC3)cc2)sc1C(=O)c1c(F)cccc1F [Example G194] | – | – | 1 | 19 | – | – | 49 | HCT-116 % Inhibition at 0.1 μM (HCT-116 cell line; HCT-116, at 0.1 μM): 20%
13 | C[C@@H](CN(C)C)N(C)C(=O)c1ccc(Nc2nc(N)c(C(=O)c3c(F)cccc3F)s2)cc1 [Example A36, 4-[4-Amino-5-(2,6-difluoro-benzoyl)-thiazol-2-ylamino]-N-(2-dimethylamino-1S-methyl-ethyl)-N-methyl-benzamide] | – | – | – | – | – | – | – | Ki (CDK2/cyclin A): 0.223 µM; Ki (human CDK4/cyclin D3): 0.044 µM; IC50 (HCT-116 cell line): 0.78 µM
14 | CN1[C@@H]2CC[C@@H](C2)[C@@H]1CNC(=O)c1ccc(Nc2nc(N)c(C(=O)c3c(F)cccc3F)s2)cc1 (relative stereo) [Example A76, 4-[4-Amino-5-(2,6-difluoro-benzoyl)-thiazol-2-ylamino]-N-(2-methyl-2-aza-bicyclo[2.2.1]hept-3-endo-ylmethyl)-benzamide] | – | – | – | – | – | – | – | Ki (CDK2/cyclin A): 0.015 µM; Ki (human CDK4/cyclin D3): 0.12 µM; IC50 (HCT-116 cell line): 1.1 µM
15 | C=CCN(C)C(=O)c1ccc(Nc2nc(N)c(C(=O)c3c(F)cccc3F)s2)cc1 [Example G27] | – | – | −6 | 4 | – | – | 60 | –
16 | CN(C)CCCCNC(=O)c1ccc(Nc2nc(N)c(C(=O)c3c(F)cccc3F)s2)cc1 [Example G93] | – | – | −4 | 11 | – | – | 58 | HCT-116 % Inhibition at 0.1 μM (HCT-116 cell line; HCT-116, at 0.1 μM): 26%
17 | Nc1nc(Nc2ccc(C(=O)Nc3ccc(OC(F)(F)F)cc3)cc2)sc1C(=O)c1c(F)cccc1F [Example G230] | 8 | 20 | – | – | 19 | 52 | – | –
18 | Nc1nc(Nc2ccc(C(=O)NCC(O)CO)cc2)sc1C(=O)c1c(Cl)cccc1Cl (stereo not shown) [Example B3, 4-[4-Amino-5-(2,6-dichloro-benzoyl)-thiazol-2-ylamino]-N-(2,3-dihydroxy-propyl)-benzamide] | – | – | – | – | – | – | – | Ki (CDK2/cyclin A): 0.066 µM; Ki (human CDK4/cyclin D3): 0.008 µM; IC50 (HCT-116 cell line): 18 µM

Further lines, with some results ahead:

Row | CDK2 % Inhibition at 0.03 μM (CDK2/cyclin A; 0.03 μM compound) [%] | CDK4 % Inhibition at 0.03 μM (human CDK4/cyclin D3; 0.03 μM compound) [%] | CDK2 % Inhibition at 0.03 μM (CDK2/cyclin A; at 0.03 μM) [%] | CDK4 % Inhibition at 0.03 μM (human CDK4/cyclin D3; at 0.03 μM) [%] | SMILES | HCT-116 % Inhibition at 0.1 μM (HCT-116 cell line; HCT-116 cells, 0.1 μM compound) [%] | HCT-116 % Inhibition at 0.25 μM (HCT-116 cell line; [1]) [%] | HCT-116 % Inhibition at 0.25 μM (HCT-116 cell line; HCT-116, at 0.25 μM) [%] | further results
19 | 18 | 11 | – | – | Nc1nc(Nc2ccc(C(=O)N(CCCO)Cc3ccccn3)cc2)sc1C(=O)c1c(F)cccc1F [Example G243] | 31 | 40 | – | –
20 | 25 | 20 | – | – | Nc1nc(Nc2ccc(C(=O)NCc3ccc(Cl)cc3)cc2)sc1C(=O)c1c(F)cccc1F [Example G258] | 41 | 84 | – | –
21 | 10 | −3 | – | – | C[C@@H](CNC(=O)c1ccc(Nc2nc(N)c(C(=O)c3c(F)cccc3F)s2)cc1)c1ccccc1 [Example G375] | 26 | 62 | – | –
22 | −1 | 46 | – | – | Nc1nc(Nc2ccc(C(=O)N3CCN(c4ccncc4)CC3)cc2)sc1C(=O)c1c(F)cccc1F [Example G311] | 5 | 43 | – | –
23 | −9 | 30 | – | – | CCN(CC)CCN(C)C(=O)c1ccc(Nc2nc(N)c(C(=O)c3c(F)cccc3F)s2)cc1 [Example G298] | 0 | 46 | – | –
24 | 17 | 14 | – | – | COc1cccc(CNC(=O)c2ccc(Nc3nc(N)c(C(=O)c4c(F)cccc4F)s3)cc2)c1OC [Example G332] | 21 | 66 | – | –
25 | 23 | 32 | – | – | Nc1nc(Nc2ccc(C(=O)NCc3cccc(C(F)(F)F)c3)cc2)sc1C(=O)c1c(F)cccc1F [Example G293] | 10 | 56 | – | –
26 | −10 | 11 | – | – | Nc1nc(Nc2ccc(C(=O)Nc3ccc(Cl)cc3)cc2)sc1C(=O)c1c(F)cccc1F [Example G288] | 16 | 60 | – | –
27 | −14 | 2 | – | – | Nc1nc(Nc2ccc(C(=O)N3CCC(CO)CC3)cc2)sc1C(=O)c1c(F)cccc1F [Example G390] | 10 | 40 | – | –
28 | −11 | −7 | – | – | CCC(C)CN(CCO)C(=O)c1ccc(Nc2nc(N)c(C(=O)c3c(F)cccc3F)s2)cc1 (stereo not shown) [Example G299] | 10 | 49 | – | –

Source: patent publication US6720346B2, “Thiazole benzamide derivatives and pharmaceutical compositions for inhibiting cell proliferation” (Agouron Pharmaceuticals, Inc., priority 2001, dated 2004)
